# Measurements as given in ChEMBL document CHEMBL4270569, “Crystal structure of the Eg5 - K858 complex and implications for structure-based design of thiadiazole-containing inhibitors” (Eur J Med Chem, 2018).
# Biological target: T1, Kinesin-like protein KIF11 (Homo sapiens, UniProt P52732)
# T1 sequence (P52732 whole entry): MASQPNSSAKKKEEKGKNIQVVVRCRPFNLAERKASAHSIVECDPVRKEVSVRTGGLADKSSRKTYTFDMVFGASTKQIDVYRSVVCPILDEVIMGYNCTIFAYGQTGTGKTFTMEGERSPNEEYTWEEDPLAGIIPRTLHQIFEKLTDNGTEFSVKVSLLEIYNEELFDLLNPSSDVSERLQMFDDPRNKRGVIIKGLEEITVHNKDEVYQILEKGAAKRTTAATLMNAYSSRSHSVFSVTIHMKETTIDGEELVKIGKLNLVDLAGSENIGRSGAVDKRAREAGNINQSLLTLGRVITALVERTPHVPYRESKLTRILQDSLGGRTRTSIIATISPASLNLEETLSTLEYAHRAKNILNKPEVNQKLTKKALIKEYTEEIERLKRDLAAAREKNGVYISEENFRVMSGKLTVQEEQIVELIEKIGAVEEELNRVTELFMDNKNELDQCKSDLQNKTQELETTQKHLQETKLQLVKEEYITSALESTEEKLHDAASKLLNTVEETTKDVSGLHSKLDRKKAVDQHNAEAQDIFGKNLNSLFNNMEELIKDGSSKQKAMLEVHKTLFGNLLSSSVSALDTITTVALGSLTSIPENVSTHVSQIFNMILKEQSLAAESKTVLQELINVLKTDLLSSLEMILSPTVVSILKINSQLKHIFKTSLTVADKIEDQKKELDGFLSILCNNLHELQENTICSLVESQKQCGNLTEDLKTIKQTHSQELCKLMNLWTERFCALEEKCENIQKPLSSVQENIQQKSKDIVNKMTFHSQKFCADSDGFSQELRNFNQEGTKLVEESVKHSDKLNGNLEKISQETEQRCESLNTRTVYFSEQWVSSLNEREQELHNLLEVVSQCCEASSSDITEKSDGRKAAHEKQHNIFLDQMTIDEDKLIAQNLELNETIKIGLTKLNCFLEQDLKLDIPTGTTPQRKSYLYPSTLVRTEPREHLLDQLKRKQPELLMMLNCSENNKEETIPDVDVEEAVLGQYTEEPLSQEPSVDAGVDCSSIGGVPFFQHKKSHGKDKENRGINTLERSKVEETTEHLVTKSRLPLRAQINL
# Test: Inhibition of N-terminal His6-tagged microtubule-stimulated ATPase activity of human Eg5 motor domain (1 to 368 residues) expressed in Escherichia coli BL21 (DE3) by pyruvate kinase-lactate dehydrogenase coupled assay
row,IC50 [nM],Structure (SMILES)
1,740,CC(=O)NC1=NN(C(C)=O)C(C)(c2ccccc2)S1 (centres undefined)
2,493,CC(=O)NC1=NN(C(C)=O)[C@](C)(c2ccccc2)S1

# Biological target: T1, Kinesin-like protein KIF11
# Test: Binding affinity to N-terminal His6-tagged human Eg5 motor domain (1 to 368 residues) expressed in Escherichia coli BL21 (DE3) by isothermal titration calorimetry method
row,Kd [nM],Structure (SMILES)
1,665,CC(=O)NC1=NN(C(C)=O)C(C)(c2ccccc2)S1 (centres undefined)
2,220,CC(=O)NC1=NN(C(C)=O)[C@](C)(c2ccccc2)S1

# Biological target: T1, Kinesin-like protein KIF11
# Test: Inhibition of basal ATPase activity of N-terminal His6-tagged human Eg5 motor domain (1 to 368 residues) expressed in Escherichia coli BL21 (DE3) by pyruvate kinase-lactate dehydrogenase coupled assay
row,Structure (SMILES),IC50 [nM]
1,CC(=O)NC1=NN(C(C)=O)C(C)(c2ccc(Cl)s2)S1 (centres undefined),950
2,CC(=O)NC1=NN(C(C)=O)C(C)(c2ccncc2)S1 (centres undefined),59900
3,CC(=O)NC1=NN(C(C)=O)C(C)(c2ccsc2)S1 (centres undefined),2200
4,CC(=O)NC1=NN(C(C)=O)C(C)(c2cnccn2)S1 (centres undefined),46900
5,CC(=O)NC1=NN(C(C)=O)C(C)(c2ccc(OC(C)=O)cc2)S1 (centres undefined),5100
6,CC(=O)NC1=NN(C(C)=O)C(C)(c2ccco2)S1 (centres undefined),4300
7,CC(=O)NC1=NN(C(C)=O)C(c2ccccc2)S1 (centres undefined),20000
8,CC(=O)NC1=NN(C(C)=O)C(C)(c2cccs2)S1 (centres undefined),1700
9,CC(=O)NC1=NN(C(C)=O)C(C)(C2CCCCC2)S1 (centres undefined),7500
10,CC(=O)NC1=NN(C(C)=O)C(C)(c2cccnc2)S1 (centres undefined),8500
11,CC(=O)NC1=NN(C(C)=O)C(c2cc(F)ccc2F)S1 (centres undefined),41100

# Second part, the compound after the results:
row,IC50 [nM],Structure (SMILES)
1,740,CC(=O)NC1=NN(C(C)=O)C(C)(c2ccccc2)S1 (centres undefined)
2,37200,CC(=O)NC1=NN(C(C)=O)C(C)(c2ccccn2)S1 (centres undefined)
3,1900,CC(=O)NC1=NN(C(C)=O)C(C)(c2cccc3ccccc23)S1 (centres undefined)
4,15600,CC(=O)NC1=NN(C(C)=O)C(C)(c2ccc3ccccc3c2)S1 (centres undefined)
5,580,CC(=O)NC1=NN(C(C)=O)[C@](C)(c2ccccc2)S1
6,840,CC(=O)NC1=NN(C(C)=O)C(C)(c2cc(F)ccc2F)S1 (centres undefined)
7,53900,CC(=O)NC1=NN(C(C)=O)C(c2cccc3ccccc23)S1 (centres undefined)
8,1460,CCC1(c2ccccc2)SC(NC(C)=O)=NN1C(C)=O (centres undefined)

# Biological target: T1, Kinesin-like protein KIF11
# Test: Inhibition of microtubule-stimulated human Eg5 ATPase activity
row,IC50 [nM],Structure (SMILES)
1,26,CCNCCS(=O)(=O)NC[C@@]1(c2ccccc2)SC(NC(=O)C(C)(C)C)=NN1C(=O)C(C)(C)C [LITRONESIB]
